Laboratory results from patent publication US20180094232A1, “Methods For The Cryopreservation Of Mammalian Cells” (The General Hospital Corporation, priority 2009, published 2018).
“Also recorded” adds a separate entry of the source. Like-named read-outs stand apart in the source and are kept apart here.

Experiments:
[1] = Vitrification of CPA laden solutions: opacity after plunging the device into liquid nitrogen; assay type: physicochemical
Excerpt: One convenient way for determining non-vitrification is the appearance of opacity as a result of ice formation when freezing solutions in a straw. If there is no visible opacity, it is called apparent vitrification. Although opacity could be easily identified in the traditional plastic straw using the naked eye, it is very difficult to do so for the quartz micro-capillary due to its small dimension. Therefore, an experimental setup shown in FIG. 10 was designed for visualization of opacity during cooling by directing two focused lights on the capillary held against a dark background for all the devices shown in FIG. 1 except the stainless steel micro-capillary. […] This setup was used to determine the threshold (minimum) CPA concentration required to completely avoid opacity during cooling. […] Various total CPA concentrations from 12% to 30% by volume with 2% increments were studied using both the open pulled straw and the thin walled quartz micro-capillary. Since 0.2-1 M sucrose or trehalose has been used in essentially all studies for cryopreservation of mammalian oocytes by both slow freezing and vitrification, further studies were also performed using the quartz micro-capillary for solutions with 0.5 M sucrose or trehalose plus 1.5 M, 2.0 M, and 2.5 M PROH, respectively. The solutions can be loaded into the open pulled straw and quartz micro-capillaries by capillary action while it can be expelled out of the capillaries by using a micro-syringe attached with a soft PEP polymer needle tip to push from the end of the capillaries with a bigger opening.

[2] = Critical cooling rate to achieve vitrification (Vcc) from Boutron's semi-empirical theory and DSC K4; assay type: physicochemical
Excerpt: The critical cooling rate to achieve vitrification (Vcc) is a function of the concentration of cryoprotectant. It has been extensively studied in the case of 1,2-propanediol and other alcohols with relevance in cryobiology, although mainly in the range of cooling rates achievable by differential scanning calorimetry (DSC) techniques. However, it is possible to obtain estimates of the critical cooling rates at other […]. The presence of sugars in equimolar concentrations has shown to have no effect on Vcc in the case of monosaccharides and little effect in the case of sucrose for the concentration used in these studies (0.3 M)(Kuleshova et al., Cryobiology 38: 199-130, 1999). The Vcc can be inferred from Boutron's semi-empirical theory of glass forming tendency (Boutron, Cryobiology 23:88-102, 1986); it is given by:
To is the initial temperature of crystallization and xg is the amount of ice formed at the critical cooling rate. Many studies in the literature consider a solution to be vitrified when xg≦10^−6 (Liu and McGrath, Proc. 2005 IEEE Eng. Med. Biol. 27th Ann. Conference, p. 7501-7504, 2005). K4 is a constant dependent of the solution and can be determined by DSC. Although there is not data for K4 in the available literature for our solution, some estimation can be done. The values of K4 for 40%, 37.5% and 35% (w/w) of aqueous solutions of 1,2 propanediol are 24.1° C./min, 54.1° C./min and 151° C./min (Ren et al., Cryobiology 31:47-56, 1994). These values of K4 give rise to Vcc values of 8.0×10^2° C./min, 1.8×10^3° C./min and 5.0×10^3° C./min, respectively. So, a tentative value of […] for 1.8 M of 1,2-propanediol is 10^4° C./min. […] The exponential fitting of the data is justified by the theory (Ren et al., supra).

[3] = system: murine embryonic stem (ES) cells; experiment: Attachment efficiency of ES cells post vitrification; assay type: cell-based; settings: 0.5 M trehalose, 2 M PROH, alone or combined; QMC, liquid nitrogen; day 1
Procedure: On the day of experiment, the attached cells were lightly trypsinized for 3-5 minutes and collected. The cells were pelleted at 100×g for 5 minutes and resuspended in cold stem cell media supplemented with 1.5 M 1,2-propanediol (Sigma, St Louis, Mo.) and incubated on ice for 10 minutes. The cells were then spun down at 100×g for 3-5 minutes and resuspended in 1 ml first vitrification solution for 10 minutes. The cells were then spun down at 100×g for 3-5 minutes and resuspended in the second solution at 10×10^6/ml for another 10 minutes. The first vitrification solution was made of ES cell maintenance medium supplemented with 1.5 M 1,2-propanediol, while the second solution was supplemented with 2 M 1,2-propanediol and 0.5 M trehalose (Ferro Pfanstiehl Laboratories, Inc., Waukegan, Ill.). Cells were also cryopreserved using either 0.5 M trehalose or 2 M 1,2-propanediol only for comparison. […]
Cell attachment and growth was determined by counting the number of cells per field under a 10× objective. […] The attachment efficiency was calculated as the ratio of the total number of cells per field of a cryopreserved sample to that of the control non-frozen sample at day 1. To assess the proliferation of the attached cells, the total number of cells per field was further monitored for 4 days.

primary rat hepatocytes = experiment: Hepatocyte viability post-cryopreservation in QMC, exclusion of trypan blue; assay type: cell-based; settings: 1.5 M PROH, 0.3 M sucrose, or both, immediately post-cryopreservation
Procedure: The vitrification technique was also tested using primary liver cells (hepatocytes) due to their sensitivity to stress, and importance in liver tissue engineering and availability. The cell viability of hepatocytes was determined immediately post-cryopreservation in quartz micro-capillaries (QMC) in the presence of either no CPA; 0.3 M sucrose; 1.5 M 1,2-propanediol (PROH); 1.5 M PROH and 0.3 M sucrose; or 2.0 M PROH and […]. The number of viable cells was determined in both vitrified samples as well as non-vitrified controls (i.e., no freezing). Cell viability was quantified by the exclusion of trypan blue. […] There was only ˜35% survival for cells loaded with 1.5 M PROH prior to cryopreservation. Sucrose (0.3 M) was then added to the cryopreservation solution with 1.5-2 M PROH. […] When 0.3 M sucrose was added to the cryopreservation solution, the immediate viability jumped to ˜75%.

mouse oocytes = experiment: Survival and morphology of mouse oocytes after vitrification in quartz capillaries; assay type: cell-based
Procedure: The 6-week-old B6D2F1 female mice were superovulated with 7.5 IU of pregnant mare serum gonadotrophin (Sigma-Aldrich, St. Louis, Mo., USA) and 7.5 IU of human chorionic gonadotrophin (Sigma-Aldrich) given by intraperitoneal injections 48 h apart. Fourteen hours after human chorionic gonadotrophin injection, females were anaesthetized with avertin (Sigma-Aldrich) then killed by cervical dislocation and their oviducts were removed. The cumulus-oocytecomplex was released from the ampullary region of each oviduct by puncturing the oviduct with a 27-gauge needle. Cumulus cells were removed by exposure to hyaluronidase (80 IU/ml) (Irvine Scientific, Santa Ana, Calif., USA) for 3 min and washed three times with human tubal fluid (HTF) medium (Irvine Scientific) with 10% fetal bovine serum (FBS; Gibco, Carlsbad, Calif., USA). Oocytes were transferred and cultured in HTF medium (Quinn et al., 1995) containing 10% FBS at 37° C. and 5% CO2 in air until they were vitrified.
All cryoprotectant solutions were filter-sterilized and stored at 4° C. prior to use. The base cryoprotectant solutions used were PrOH (Sigma-Aldrich) and trehalose (Ferro Pfanstiehl Laboratory, Waukegan, Ill., USA). The concentrations and types of cryoprotectants used were similar to those used in traditional slow-freezing protocols for human oocytes (Gook and Edgar, 2007) and are not typically vitrifiable. For vitrification, isolated mature oocytes were placed into HTF medium supplemented with 10% FBS. Two vitrification protocols using a HEPES-buffered physiological salt solution (FHM; Specialty Media, Lavallette, N.J., USA) (Lawitts and Biggers, 1993) as a base medium were tested. In the first protocol, the oocytes were equilibrated in a 30 μl droplet of 0.75 mol/l PrOH in FHM20 (FHM medium containing 20% FBS) for 5 min, then transferred to a 30 μl droplet of 0.5 mol/l trehalose+1.5 mol/l PrOH in FHM20 for 5 min.
In the second protocol, oocytes were equilibrated in a 30 μl droplet of 0.75 mol/l PrOH in FHM20 for 5 min, then equilibrated in a 30 μl droplet of 1.5 mol/l PrOH in FHM20 for 5 min before being transferred to a 0.5 mol/l trehalose 2.0 mol/l PrOH in FHM20, for 5 min. The QC straws (The Charles Supper Company, USA) used for vitrification have an outer and inner diameter of approximately 0.2 and 0.18 mm, respectively, and a wall thickness of 0.01 mm (He et al., 2008). After exposure to the vitrification solution, the oocytes were then loaded into the 200 μm QC and plunged into liquid or slush nitrogen for comparison. For warming, the vitrified oocytes were immediately immersed in a holding medium containing 0.2 mol/l trehalose in […]phosphate-buffered saline (PBS; Gibco) at 37° C. for 1 minute. […]

[4] = cited from earlier work
[5] = both open pulled straw and quartz micro-capillary

CC(O)CO (stereo not drawn) [1,2-Propanediol (PROH), 1,2-propanediol]
appearance of the loaded quartz micro-capillary after plunging into liquid nitrogen ([1]; 1 M (7% v) 1,2-propanediol in FHM): opaque; also recorded: whitish appearance
appearance of the loaded quartz micro-capillary after plunging into liquid nitrogen ([1]; 2 M (14% v) 1,2-propanediol in FHM): clear appearance
threshold concentration lower than that of ethylene glycol (EG) [1, 5]: ~5 % v
threshold concentration lower than that of the combination of EG and PROH in a 1:1 ratio [1, 5]: 2.5 % v
threshold concentration for the complete absence of opacity ([1]; micro-capillary, liquid nitrogen): ~2 M
K4, tentative value ([2]; 1.8 M): ~10^4 ° C./min
critical cooling rate to achieve vitrification (Vcc) ([2]; 35% (w/w) aqueous solution): 5.0×10^3 ° C./min
critical cooling rate to achieve vitrification (Vcc) ([2]; 37.5% (w/w) aqueous solution): 1.8×10^3 ° C./min
critical cooling rate to achieve vitrification (Vcc) ([2]; 40% (w/w) aqueous solution): 8.0×10^2 ° C./min
attachment efficiency (normalized to control) [3]: minimum amount of cells can attach
cell survival, immediate viability (primary rat hepatocytes): ~35%
Surviving oocytes (mouse oocytes; liquid nitrogen, 1.5 mol/l PrOH + 0.5 mol/l trehalose in FHM20, QC): 18/40 (45.0) %
Surviving oocytes (mouse oocytes; liquid nitrogen, 2.0 mol/l PrOH + 0.5 mol/l trehalose in FHM20, QC): 19/40 (47.5) %
Surviving oocytes (mouse oocytes; slush nitrogen, 1.5 mol/l PrOH + 0.5 mol/l trehalose in FHM20, QC): 36/40 (90.0) %
Surviving oocytes (mouse oocytes; slush nitrogen, 2.0 mol/l PrOH + 0.5 mol/l trehalose in FHM20, QC): 28/40 (70.0) %
K4 ([4]; 35% (w/w) aqueous solution): 151 ° C./min
K4 ([4]; 37.5% (w/w) aqueous solution): 54.1 ° C./min
K4 ([4]; 40% (w/w) aqueous solution): 24.1 ° C./min

OCCO [Ethylene glycol (EG), ethylene glycol]
threshold concentration for the complete absence of opacity [1]: ~4 M

OC[C@H]1O[C@@](CO)(O[C@H]2O[C@H](CO)[C@@H](O)[C@H](O)[C@H]2O)[C@@H](O)[C@@H]1O [sucrose]
cell survival, immediate viability (primary rat hepatocytes): less than 10%

OC[C@H]1O[C@H](O[C@H]2O[C@H](CO)[C@@H](O)[C@H](O)[C@H]2O)[C@H](O)[C@@H](O)[C@@H]1O [trehalose]
attachment efficiency (normalized to control) [3]: minimum amount of cells can attach
